Results on nine compounds are retold here after ChEMBL document CHEMBL5518207, “Structure Guided Discovery of Novel Pan Metallo-β-Lactamase Inhibitors with Improved Gram-Negative Bacterial Cell Penetration” (J Med Chem, 2024).

Assay [1] in a line: Inhibition of GST tagged NDM-1 (unknown origin) expressed in Escherichia coli BL21 Star (DE3) competent cells using CCF2-FA as substrate incubated for 2 hrs by fluorescence based analysis.
A short description of assay [2]: Inhibition of GST tagged IMP-1 (unknown origin) expressed in Escherichia coli BL21 Star (DE3) competent cells using CCF2-FA as substrate incubated for 2 hrs by fluorescence based analysis.
Assay [3] can be described thus: Inhibition of GST tagged VIM-1 (unknown origin) expressed in Escherichia coli BL21 Star (DE3) competent cells using CCF2-FA as substrate incubated for 2 hrs by fluorescence based analysis.
The next assay relates to Escherichia coli. In words: Potentiation of imipenem induced antibacterial activity against Escherichia coli CLB30005 harbouring NDM-1 incubated for 18 to 22 hrs in presence of imipenem by spectrophotometer based analysis. As to conditions: time 18-22 hrs. It counts as functional.
Another assay relates to Serratia marcescens. Kind of assay: Potentiation of imipenem induced antibacterial activity against Serratia marcescens CL5741 harbouring IMP-1 incubated for 18 to 22 hrs imipenem by spectrophotometer based analysis. Format: functional. The conditions noted are these: time 18-22 hrs.
Another assay concerns Klebsiella pneumoniae. In words: Potentiation of imipenem induced antibacterial activity against Klebsiella pneumoniae IHMA599644 harbouring VIM-1 incubated for 18 to 22 hrs imipenem by spectrophotometer based analysis. It counts as functional. The conditions noted are these: time 18-22 hrs.
In assay [4] the test system is Pseudomonas aeruginosa. Kind of assay: Potentiation of imipenem induced antibacterial activity against isogenic efflux wild type Pseudomonas aeruginosa MB9798 harbouring IMP incubated for 18 to 22 hrs imipenem and beta lactamase inhibitor by spectrophotometer based analysis. It counts as functional. As to conditions: time 18-22 hrs.
Assay [5] has as its system Pseudomonas aeruginosa. In words: Potentiation of imipenem induced antibacterial activity against isogenic efflux deleted mutant Pseudomonas aeruginosa MB9799 harbouring IMP incubated for 18 to 22 hrs imipenem and beta lactamase inhibitor by spectrophotometer based analysis. Format: functional. The conditions noted are these: time 18-22 hrs.
Assay [6] has as its system Pseudomonas aeruginosa. Kind of assay: Efflux ratio of MITC95 for potentiation of imipenem induced antibacterial activity against isogenic efflux wild type Pseudomonas aeruginosa MB9798 harbouring IMP to MITC95 for potentiation of imipenem induced antibacterial activity against isogenic efflux deleted mutant Pseudomonas aeruginosa MB9799 harbouring IMP. It counts as functional.

As to `Cc1ccc(-c2cccc(S(N)(=O)=O)c2-c2nnn[nH]2)cc1`, the values for the IC50 in assay [1], in assay [2] and in [3] were 3.7 nM, 64 nM and 57 nM, respectively. Further, the figures for the MITC95 with Escherichia coli, in the assay with Serratia marcescens and with Klebsiella pneumoniae were 1.5 µM, 14 µM and 127 µM, respectively.
On to `NS(=O)(=O)c1c(Br)ccc(-c2ccc(C3CCNCC3)cc2)c1-c1nn[nH]n1`, for which the IC50 (usually the concentration that gives 50% inhibition) in [1] amounted to 11 nM; in assay [2] it was 10 nM; in [3], 3 nM. Moreover, the MITC95 was 0.4 µM in the assay on Escherichia coli, 0.2 µM with Serratia marcescens and 1.6 µM in the assay with Klebsiella pneumoniae.
Consider `Cc1ccc(-c2ccc(C3CCNCC3)cc2)c(-c2nn[nH]n2)c1S(N)(=O)=O`, for which the half-inhibitory concentration (IC50) in assay [1] was found to be 31 nM; in assay [2], 72 nM; in assay [3], 28 nM. In addition, the MITC95 in the assay on Escherichia coli is 3 µM; in the assay with Serratia marcescens it was 6 µM; in the assay with Klebsiella pneumoniae it was 25 µM.
`NC1CCC(N2CCC(c3ccc(-c4ccc(C(F)(F)F)c(S(N)(=O)=O)c4-c4nn[nH]n4)cc3)CC2)CC1` (configuration not stated): the results for the IC50 in assay [1], in assay [2] and in [3] were 6.4 nM, 1.8 nM and 11 nM, respectively. Also, the MITC95 in the assay with Escherichia coli came to 1.6 µM; in the assay on Serratia marcescens it was 3.1 µM; in the assay with Klebsiella pneumoniae, 50 µM; in the assay with Pseudomonas aeruginosa [4], 3.1 µM; with Pseudomonas aeruginosa [5], 0.78 µM. Also, the Ratio in the assay on Pseudomonas aeruginosa [6] amounted to 4.
As to `NC1(c2ccc(-c3ccc(C(F)(F)F)c(S(N)(=O)=O)c3-c3nn[nH]n3)cc2)CCNCC1`, the IC50 is 9.3 nM in [1], 12.8 nM in [2] and 3 nM in assay [3]. The MITC95 in the assay with Escherichia coli is 0.4 µM; in the assay on Serratia marcescens, 0.3 µM; in the assay with Klebsiella pneumoniae, 0.9 µM; in the assay with Pseudomonas aeruginosa [4] it was 25 µM; in the assay on Pseudomonas aeruginosa [5] it was 0.39 µM. Besides, the Ratio in the assay with Pseudomonas aeruginosa [6] is listed as 64.
`N=C(N)N[C@H]1CC[C@H](c2ccc(C(F)(F)F)c(S(N)(=O)=O)c2-c2nn[nH]n2)CC1`: the IC50 in [1] came out at 17.5 nM; in [2], 25.5 nM; in [3], 0.7 nM. Moreover, the MITC95 in the assay with Escherichia coli is 1.2 µM; in the assay on Serratia marcescens, 0.4 µM; in the assay with Klebsiella pneumoniae it was 1.2 µM; in the assay on Pseudomonas aeruginosa [4], 200 µM; with Pseudomonas aeruginosa [5], 0.78 µM. Moreover, in the assay with Pseudomonas aeruginosa [6], the Ratio is on record as 256.
Regarding `NS(=O)(=O)c1cccc(-c2ccc(C3CCNCC3)cc2)c1-c1nn[nH]n1`, the IC50 is 5 nM in [1], 34 nM in assay [2] and 19 nM in assay [3]. Further, the MITC95 amounted to 3 µM in the assay on Escherichia coli; 9 µM in the assay with Serratia marcescens; 38 µM with Klebsiella pneumoniae; 200 µM in the assay with Pseudomonas aeruginosa [4]; 1.56 µM in the assay with Pseudomonas aeruginosa [5]. Besides, in the assay on Pseudomonas aeruginosa [6], the Ratio is given as 128.
As to `NS(=O)(=O)c1c(Cl)ccc(-c2ccc(C3CCNCC3)cc2)c1-c1nn[nH]n1`, the IC50 in assay [1] came out at 6 nM; in assay [2], 9 nM; in assay [3], 3 nM. For the same compound, the MITC95 with Escherichia coli came out at 0.8 µM; with Serratia marcescens, 0.4 µM; in the assay with Klebsiella pneumoniae, 1.6 µM; with Pseudomonas aeruginosa [4], 50 µM; in the assay with Pseudomonas aeruginosa [5], 0.39 µM. Also, the Ratio with Pseudomonas aeruginosa [6] is recorded as 128.
`NS(=O)(=O)c1c(C(F)(F)F)ccc(-c2ccc(C3CCNCC3)cc2)c1-c1nn[nH]n1`: the IC50 in assay [1] came out at 0.9 nM; in assay [2], 1.2 nM; in assay [3] it was 0.3 nM. Also, the MITC95 in the assay on Escherichia coli is 0.7 µM; in the assay on Serratia marcescens, 0.2 µM; with Klebsiella pneumoniae it was 1.9 µM; in the assay with Pseudomonas aeruginosa [4], 50 µM; in the assay with Pseudomonas aeruginosa [5], 0.78 µM. Besides, the Ratio in the assay on Pseudomonas aeruginosa [6] stood at 64.
